Measured values taken from patent publication US10336762B2 (priority 2017, dated 2019).
Like-named read-outs stand apart in the source and are kept apart here.

How the values were obtained:
TNFα = test: cells; assay type: cell-based, human; conditions: Homo sapiens, Monocyte, LPS-stimulated human monocytes, read-out: EC50 TNF
IRAK4 enzyme = IRAK4 enzyme (Homo sapiens (Human), UniProt Q9NWZ3); test: biochemical; assay type: biochemical; conditions: IRAK4 enzyme, 500 μM ATP
IRAK4 enzyme, sequence (Q9NWZ3 whole entry): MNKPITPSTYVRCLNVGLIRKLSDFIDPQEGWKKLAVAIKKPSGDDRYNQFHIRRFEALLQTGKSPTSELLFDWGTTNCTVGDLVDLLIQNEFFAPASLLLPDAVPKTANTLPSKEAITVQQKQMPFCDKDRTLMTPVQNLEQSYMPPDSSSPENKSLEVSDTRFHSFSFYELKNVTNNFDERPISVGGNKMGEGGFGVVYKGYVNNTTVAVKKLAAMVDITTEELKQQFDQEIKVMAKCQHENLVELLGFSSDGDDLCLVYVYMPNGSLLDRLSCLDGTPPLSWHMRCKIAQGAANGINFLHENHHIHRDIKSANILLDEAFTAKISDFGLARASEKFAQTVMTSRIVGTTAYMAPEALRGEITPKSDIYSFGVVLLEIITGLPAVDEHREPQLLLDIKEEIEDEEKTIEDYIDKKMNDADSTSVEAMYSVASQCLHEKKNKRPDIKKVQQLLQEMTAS

Structure (SMILES)	EC50 (TNFα; TNFα content) [nM]	IC50 (IRAK4 enzyme; TR-FRET (HTRF)) [nM]	EC50 (TNFα; TNFα by TR-FRET) [nM]	IC50 (IRAK4 enzyme; TR-FRET) [nM]
CC(C)(O)[C@H](F)CNC(=O)c1cnc(-c2ccc3cc(C#N)cnn23)cc1Nc1ccc(-n2nccn2)nc1 [Example 778, (R)-4-((6-(2H-1,2,3-triazol-2-yl)pyridin-3-yl)amino)-6-(3-cyanopyrrolo[1,2-b]pyridazin-7-yl)-N-(2-fluoro-3-hydroxy-3-methyl-butyl)nicotinamide]	51	< 1		
CC(C)(O)[C@H](F)CNC(=O)c1cnc(-c2ccc3cc(C#N)cnn23)cc1N[C@H]1CC[C@H](n2cncn2)CC1 [Example 779, 4-(((1r,4R)-4-(1H-1,2,4-triazol-1-yl)cyclohexyl)amino)-6-(3-cyano-pyrrolo[1,2-b]pyridazin-7-yl)-N-((R)-2-fluoro-3-hydroxy-3-methylbutyl) nicotinamide]	28	< 1		
CC(C)(O)[C@H](F)CNC(=O)c1cnc(-c2ccc3cc(C#N)cnn23)cc1NC12CCC(N3CCOCC3)(CC1)CC2 [Example 780, (R)-6-(3-cyanopyrrolo[1,2-b]pyridazin-7-yl)-N-(2-fluoro-3-hydroxy-3-methylbutyl)-4-((4-morpholinobicyclo[2.2.2]octan-1-yl)amino)nicotinamide]	38	1		
CC(C)(O)[C@H](F)CNC(=O)c1cnc(-c2ccc3cc(C#N)cnn23)cc1NC1CCC2(CC1)COC2 [Example 781, (R)-4-(2-oxaspiro[3.5]nonan-7-ylamino)-6-(3-cyanopyrrolo[1,2-b]pyridazin-7-yl)-N-(2-fluoro-3-hydroxy-3-methyl-butyl)nicotinamide]	90	< 1		
Cn1cnc2cc(Nc3cc(-c4ccc5cc(C#N)cnn45)ncc3C(=O)NC[C@@H](F)C(C)(C)O)cnc21 [Example 782, (R)-6-(3-cyanopyrrolo[1,2-b]pyridazin-7-yl)-N-(2-fluoro-3-hydroxy-3-methylbutyl)-4-((3-methyl-3H-imidazo[4,5-b]pyridin-6-yl)amino)nicotinamide]	29	< 1		
CC(C)(O)[C@H](F)CNC(=O)c1cnc(-c2ccc3cc(C#N)cnn23)cc1N[C@H]1C[C@H](Cn2ccnc2)C1 [Example 783, 4-(((1r,3R)-3-((1H-imidazol-1-yl)methyl)cyclo-butyl)amino)-6-(3-cyanopyrrolo[1,2-b]pyridazin-7-yl)-N-((R)-2-fluoro-3-hydroxy-3-methylbutyl)nicotinamide]	22	< 1		
COCc1cncc(Nc2cc(-c3ccc4cc(C#N)cnn34)ncc2C(=O)NC[C@@H](F)C(C)(C)O)c1 [Example 784, (R)-6-(3-cyanopyrrolo[1,2-b]pyridazin-7-yl)-N-(2-fluoro-3-hydroxy-3-methylbutyl)-4-((5-(methoxymethyl)pyridin-3-yl)amino)nicotinamide]	40	< 1		
N#Cc1cnn2c(-c3cc(NC45CCC(O)(CC4)CC5)c(C(=O)NCC(=O)N4CCOCC4)cn3)ccc2c1 [Example 785, 6-(3-cyanopyrrolo[1,2-b]pyridazin-7-yl)-4-((4-hydroxybicyclo[2.2.2]octan-1-yl)amino)-N-(2-morpholino-2-oxoethyl)nicotinamide]	23	< 1		
COCCNC(=O)CNC(=O)c1cnc(-c2ccc3cc(C#N)cnn23)cc1NC12CCC(O)(CC1)CC2 [Example 786, 6-(3-cyanopyrrolo[1,2-b]pyridazin-7-yl)-4-((4-hydroxybicyclo[2.2.2]octan-1-yl)amino)-N-(2-((2-methoxyethyl)amino)-2-oxoethyl)nicotinamide]	323	2		
N#Cc1cnn2c(-c3cc(NC45CCC(O)(CC4)CC5)c(C(=O)NCC(=O)N4CC(F)C4)cn3)ccc2c1 [Example 787, 6-(3-cyanopyrrolo[1,2-b]pyridazin-7-yl)-N-(2-(3-fluoroazetidin-1-yl)-2-oxoethyl)-4-((4-hydroxybicyclo[2.2.2]octan-1-yl)amino) nicotinamide]	79	< 1		
CNC(=O)NC[C@H]1C[C@H](Nc2cc(-c3ccc4cc(C#N)cnn34)ncc2C(=O)NC[C@@H](F)C(C)(C)O)C1 [Example 788, 6-(3-cyanopyrrolo[1,2-b]pyridazin-7-yl)-N-((R)-2-fluoro-3-hydroxy-3-methylbutyl)-4-(((1r,3R)-3-((3-methylureido)methyl)cyclobutyl)amino) nicotinamide]	90	< 1		
CN1CCN(C(=O)CNC(=O)c2cnc(-c3ccc4cc(C#N)cnn34)cc2NC23CCC(O)(CC2)CC3)CC1 [Example 789, 6-(3-cyanopyrrolo[1,2-b]pyridazin-7-yl)-4-((4-hydroxybicyclo[2.2.2]octan-1-yl)amino)-N-(2-(4-methylpiperazin-1-yl)-2-oxoethyl)nicotinamide]	20	< 1		
N#Cc1cnn2c(-c3cc(NC45CCC(O)(CC4)CC5)c(C(=O)NCC(=O)N4CCCC4)cn3)ccc2c1 [Example 790, 6-(3-cyanopyrrolo[1,2-b]pyridazin-7-yl)-4-((4-hydroxybicyclo[2.2.2]octan-1-yl)amino)-N-(2-oxo-2-(pyrrolidin-1-yl)ethyl)nicotinamide]	21	< 1		
COC1CN(C(=O)CNC(=O)c2cnc(-c3ccc4cc(C#N)cnn34)cc2NC23CCC(O)(CC2)CC3)C1 [Example 791, 6-(3-cyanopyrrolo[1,2-b]pyridazin-7-yl)-4-((4-hydroxybicyclo[2.2.2]octan-1-yl)amino)-N-(2-(3-methoxyazetidin-1-yl)-2-oxoethyl)nicotinamide]	45	1		
N#Cc1cnn2c(-c3cc(NC45CCC(O)(CC4)CC5)c(C(=O)NCC(=O)N4CCCCC4)cn3)ccc2c1 [Example 792, 6-(3-cyanopyrrolo[1,2-b]pyridazin-7-yl)-4-((4-hydroxybicyclo[2.2.2]octan-1-yl)amino)-N-(2-oxo-2-(piperidin-1-yl)ethyl)nicotinamide]	86	2		
CN1CCN(C(=O)NC[C@H]2C[C@H](Nc3cc(-c4ccc5cc(C#N)cnn45)ncc3C(=O)NC[C@@H](F)C(C)(C)O)C2)CC1 [Example 793, N-(((1R,3r)-3-((2-(3-cyanopyrrolo[1,2-b]pyridazin-7-yl)-5-(((R)-2-fluoro-3-hydroxy-3-methylbutyl)carbamoyl)pyridin-4-yl)amino)cyclobutyl)methyl)-4-methylpiperazine-1-carboxamide]	598	3		
CN1CCC(C(=O)NC[C@H]2C[C@H](Nc3cc(-c4ccc5cc(C#N)cnn45)ncc3C(=O)NC[C@@H](F)C(C)(C)O)C2)CC1 [Example 794, 6-(3-cyanopyrrolo[1,2-b]pyridazin-7-yl)-N-((R)-2-fluoro-3-hydroxy-3-methylbutyl)-4-(((1r,3R)-3-((1-methylpiperidine-4-carboxamido)methyl)cyclo-butyl)amino)nicotinamide]	997	2		
CN1CC(C(=O)NC[C@H]2C[C@H](Nc3cc(-c4ccc5cc(C#N)cnn45)ncc3C(=O)NC[C@@H](F)C(C)(C)O)C2)C1 [Example 795, 6-(3-cyanopyrrolo[1,2-b]pyridazin-7-yl)-N-((R)-2-fluoro-3-hydroxy-3-methylbutyl)-4-(((1r,3R)-3-((1-methylazetidine-3-carboxamido)methyl)cyclobutyl)amino) nicotinamide]	> 10000	7		
N#Cc1cnn2c(-c3cc(NC45CCC(O)(CC4)CC5)c(C(=O)NCC(=O)N4CCN(C5COC5)CC4)cn3)ccc2c1 [Example 796, 6-(3-cyanopyrrolo[1,2-b]pyridazin-7-yl)-4-((4-hydroxybicyclo[2.2.2]octan-1-yl)amino)-N-(2-(4-(oxetan-3-yl)piperazin-1-yl)-2-oxoethyl)nicotinamide]	75	2		
CC1(F)CN(C(=O)CNC(=O)c2cnc(-c3ccc4cc(C#N)cnn34)cc2NC23CCC(O)(CC2)CC3)C1 [Example 797, 6-(3-cyanopyrrolo[1,2-b]pyridazin-7-yl)-N-(2-(3-fluoro-3-methyl-azetidin-1-yl)-2-oxoethyl)-4-((4-hydroxybicyclo[2.2.2]octan-1-yl)amino) nicotinamide]			38	1
N#Cc1cnn2c(-c3cc(NC45CCC(O)(CC4)CC5)c(C(=O)NCC(=O)N4CCC(F)(F)C4)cn3)ccc2c1 [Example 798, 6-(3-cyanopyrrolo[1,2-b]pyridazin-7-yl)-N-(2-(3,3-difluoropyrrolidin-1-yl)-2-oxoethyl)-4-((4-hydroxybicyclo[2.2.2]octan-1-yl)amino) nicotinamide]			42	1
N#Cc1cnn2c(-c3cc(NC45CCC(O)(CC4)CC5)c(C(=O)NCC(=O)N4CCC5(COC5)C4)cn3)ccc2c1 [Example 799, 6-(3-cyanopyrrolo[1,2-b]pyridazin-7-yl)-4-((4-hydroxybicyclo[2.2.2]octan-1-yl)amino)-N-(2-oxo-2-(2-oxa-6-azaspiro[3.4]octan-6-yl)ethyl)nicotinamide]			62	< 1
N#Cc1cnn2c(-c3cc(NC45CCC(O)(CC4)CC5)c(C(=O)NCC(=O)N4CC5(COC5)C4)cn3)ccc2c1 [Example 800, 6-(3-cyanopyrrolo[1,2-b]pyridazin-7-yl)-4-((4-hydroxybicyclo[2.2.2]octan-1-yl)amino)-N-(2-oxo-2-(2-oxa-6-azaspiro[3.3]heptan-6-yl)ethyl)nicotinamide]			133	3
CCOC(=O)CCNC(=O)c1cnc(-c2ccc3cc(C#N)cnn23)cc1NC12CCC(O)(CC1)CC2 [Example 801, ethyl 3-(6-(3-cyano-pyrrolo[1,2-b]pyridazin-7-yl)-4-((4-hydroxy-bicyclo[2.2.2]octan-1-yl)amino)nicotinamido) propanoate]			57	1
CN1CCN(C(=O)C23CCC(Nc4cc(-c5ccc6cc(C#N)cnn56)ncc4C(=O)NC[C@@H](F)C(C)(C)O)(CC2)CC3)CC1 [Example 802, (R)-6-(3-cyanopyrrolo[1,2-b]pyridazin-7-yl)-N-(2-fluoro-3-hydroxy-3-methylbutyl)-4-((4-(4-methylpiperazine-1-carbonyl)bicyclo[2.2.2]octan-1-yl)amino) nicotinamide]			157	2
